Test results taken from ChEMBL document CHEMBL1201862, “PubChem BioAssay data set” (2004).
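A five-concentration, 48-hour dose response in 96-well plates underlies each endpoint, interpolated linearly between surrounding concentrations. Abbreviation: GI50, concentration required for 50% inhibition of growth.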 Active and inactive are the calls of the source. Cut-off read from the data, not from the text of the source: active = GI50 up to about 1.1 µM and inactive = higher.

Legend:
Experiment in all cases: NCI tumour cell line growth inhibition, 48 h
NCI-H226 = test system: NCI-H226
HCT-116 = test system: HCT-116
A498 = test system: A498
KM12 = test system: KM12
K562 = test system: K562
COLO 205 = test system: COLO 205
OVCAR-5 = test system: OVCAR-5
SW-620 = test system: SW-620
MDA-N = test system: MDA-N
OVCAR-8 = test system: OVCAR-8
OVCAR-3 = test system: OVCAR-3
SK-MEL-28 = test system: SK-MEL-28
SNB-75 = test system: SNB-75
HL-60 = test system: HL-60
SK-OV-3 = test system: SK-OV-3
HT-29 = test system: HT-29
T47D = test system: T47D
CAKI-1 = test system: CAKI-1
MCF7 = test system: MCF7
NCI-H522 = test system: NCI-H522
786-0 = test system: 786-0
SR = test system: SR
SF-295 = test system: SF-295
NCI-H23 = test system: NCI-H23
SN12C = test system: SN12C
DU-145 = test system: DU-145
RPMI-8226 = test system: RPMI-8226
HOP-62 = test system: HOP-62
CCRF-CEM = test system: CCRF-CEM
MOLT-4 = test system: MOLT-4
LOX IMVI = test system: LOX IMVI
M14 = test system: M14
Malme-3M = test system: Malme-3M
MDA-MB-435 = test system: MDA-MB-435
Hs-578T = test system: Hs-578T
NCI-H460 = test system: NCI-H460
U-251 = test system: U-251
IGROV-1 = test system: IGROV-1
UO-31 = test system: UO-31
UACC-62 = test system: UACC-62
TK-10 = test system: TK-10
MDA-MB-231 = test system: MDA-MB-231
OVCAR-4 = test system: OVCAR-4
PC-3 = test system: PC-3
SF-539 = test system: SF-539
HOP-92 = test system: HOP-92
HCT-15 = test system: HCT-15
SF-268 = test system: SF-268
EKVX = test system: EKVX
UACC-257 = test system: UACC-257
SNB-19 = test system: SNB-19
BT-549 = test system: BT-549
NCI/ADR-RES = test system: NCI/ADR-RES
RXF 393 = test system: RXF 393
A549 = test system: A549

Compound: CN1CCN(c2ccc(-n3cc(C(=O)O)c(=O)c4cc(F)c(N5CCN(C)CC5)cc43)nc2)CC1
- GI50 (NCI-H226): > 100 µM (inactive)
- GI50 (HCT-116): 69.3 µM (inactive)
- GI50 (A498): > 100 µM (inactive)
- GI50 (KM12): 33.6 µM (inactive)
- GI50 (K562): 62.8 µM (inactive)
- GI50 (COLO 205): 25.4 µM (inactive)
- GI50 (OVCAR-5): > 100 µM (inactive)
- GI50 (SW-620): 56.2 µM (inactive)
- GI50 (MDA-N): > 100 µM (inactive)
- GI50 (OVCAR-8): 85.1 µM (inactive)
- GI50 (OVCAR-3): > 100 µM (inactive)
- GI50 (SK-MEL-28): > 100 µM (inactive)
- GI50 (SNB-75): > 100 µM (inactive)
- GI50 (HL-60): > 100 µM (inactive)
- GI50 (SK-OV-3): > 100 µM (inactive)
- GI50 (HT-29): 65.5 µM (inactive)
- GI50 (T47D): > 100 µM (inactive)
- GI50 (CAKI-1): > 100 µM (inactive)
- GI50 (MCF7): > 100 µM (inactive)
- GI50 (NCI-H522): 78.5 µM (inactive)
- GI50 (786-0): 64.7 µM (inactive)
- GI50 (SR): > 100 µM (inactive)
- GI50 (SF-295): > 100 µM (inactive)
- GI50 (NCI-H23): > 100 µM (inactive)
- GI50 (SN12C): > 100 µM (inactive)
- GI50 (DU-145): > 100 µM (inactive)
- GI50 (RPMI-8226): > 100 µM (inactive)
- GI50 (HOP-62): > 100 µM (inactive)
- GI50 (CCRF-CEM): > 100 µM (inactive)
- GI50 (MOLT-4): > 100 µM (inactive)
- GI50 (LOX IMVI): > 100 µM (inactive)
- GI50 (M14): > 100 µM (inactive)
- GI50 (Malme-3M): 95.5 µM (inactive)
- GI50 (MDA-MB-435): > 100 µM (inactive)
- GI50 (Hs-578T): > 100 µM (inactive)
- GI50 (NCI-H460): > 100 µM (inactive)
- GI50 (U-251): > 100 µM (inactive)
- GI50 (IGROV-1): > 100 µM (inactive)
- GI50 (UO-31): > 100 µM (inactive)
- GI50 (UACC-62): > 100 µM (inactive)
- GI50 (TK-10): > 100 µM (inactive)
- GI50 (MDA-MB-231): > 100 µM (inactive)
- GI50 (OVCAR-4): > 100 µM (inactive)
- GI50 (PC-3): > 100 µM (inactive)
- GI50 (SF-539): > 100 µM (inactive)
- GI50 (HOP-92): > 100 µM (inactive)
- GI50 (HCT-15): > 100 µM
- GI50 (SF-268): > 100 µM (inactive)
- GI50 (EKVX): > 100 µM (inactive)
- GI50 (UACC-257): > 100 µM (inactive)
- GI50 (SNB-19): > 100 µM (inactive)
- GI50 (BT-549): 80 µM (inactive)
- GI50 (NCI/ADR-RES): > 100 µM (inactive)
- GI50 (RXF 393): > 100 µM (inactive)
- GI50 (A549): > 100 µM (inactive)
